System: MV-4-11 cells
Test: Gene expression microarray analysis (Affymetrix PrimeView) and GSEA
Format: cell-based, human
Parameters: RFU PODN (11730768_x_at) / Fold change /veh PODN (11730768_x_at) / RFU LINC00158 (11744669_a_at) / Fold change /veh LINC00158 (11744669_a_at) / RFU DUSP10 (11751237_a_at) / Fold change /veh DUSP10 (11751237_a_at) / RFU ID3 (11757404_x_at) / Fold change /veh ID3 (11757404_x_at) / RFU PLEKHG5 (11737974_s_at) / Fold change /veh PLEKHG5 (11737974_s_at) / RFU LRRC4B (11730491_at) / Fold change /veh LRRC4B (11730491_at) / RFU GIMAP4 (11747438_a_at) / Fold change /veh GIMAP4 (11747438_a_at) / RFU KRT8 (11758183_x_at) / Fold change /veh KRT8 (11758183_x_at) / RFU CNN1 (11734310_a_at) / Fold change /veh CNN1 (11734310_a_at) / RFU VPS37D (11726825_at) / Fold change /veh VPS37D (11726825_at) / RFU C10orf10 (11716522_x_at) / Fold change /veh C10orf10 (11716522_x_at) / RFU KIR2DL2 /// KIR2DL4 /// KIR2DL5A /// KIR2DL5B /// KIR2DS1 /// KIR2DS2 /// KIR2DS3 /// KIR2DS4 /// KIR3DL3 /// KIR3DL3 /// KIR3DS1 (11738374_at) / Fold change /veh KIR2DL2 /// KIR2DL4 /// KIR2DL5A /// KIR2DL5B /// KIR2DS1 /// KIR2DS2 /// KIR2DS3 /// KIR2DS4 /// KIR3DL3 /// KIR3DL3 /// KIR3DS1 (11738374_at) / RFU C1QL1 (11718748_at) / Fold change /veh C1QL1 (11718748_at) / RFU TMPRSS4 (11747572_a_at) / Fold change /veh TMPRSS4 (11747572_a_at) / RFU HAMP (11756126_x_at) / Fold change /veh HAMP (11756126_x_at) / RFU RNFT2 (11725882_a_at) / Fold change /veh RNFT2 (11725882_a_at) / RFU NR4A2 (11747474_a_at) / Fold change /veh NR4A2 (11747474_a_at) / RFU ABCC12 (11746883_a_at) / Fold change /veh ABCC12 (11746883_a_at) / RFU TMEM136 (11760407_x_at) / Fold change /veh TMEM136 (11760407_x_at) / RFU CLDN22 /// WWC2 (11732394_at) / Fold change /veh CLDN22 /// WWC2 (11732394_at) / RFU HLA-DPB1 (11760878_x_at) / Fold change /veh HLA-DPB1 (11760878_x_at) / RFU SPINT1 (11716480_a_at) / Fold change /veh SPINT1 (11716480_a_at) / RFU GAP43 (11754022_s_at) / Fold change /veh GAP43 (11754022_s_at) / RFU A4GNT (11735810_at) / Fold change /veh A4GNT (11735810_at) / RFU PRB3 (11715151_x_at) / Fold change /veh PRB3 (11715151_x_at) / RFU TUBB4B (11761932_at) / Fold change /veh TUBB4B (11761932_at) / RFU CAPN14 (11732068_a_at) / Fold change /veh CAPN14 (11732068_a_at) / RFU TMCC2 (11721928_a_at) / Fold change /veh TMCC2 (11721928_a_at) / RFU IRGQ (11745062_a_at) / Fold change /veh IRGQ (11745062_a_at) / RFU FAM174B (11720279_a_at) / Fold change /veh FAM174B (11720279_a_at) / RFU TMPRSS4 (11748680_a_at) / Fold change /veh TMPRSS4 (11748680_a_at) / RFU FAM212B (11763350_a_at) / Fold change /veh FAM212B (11763350_a_at) / RFU PLEKHG5 (11743358_a_at) / Fold change /veh PLEKHG5 (11743358_a_at) / RFU ZSCAN30 (11745921_a_at) / Fold change /veh ZSCAN30 (11745921_a_at) / RFU CMKLR1 (11741424_a_at) / Fold change /veh CMKLR1 (11741424_a_at) / RFU LOC101060620 /// MAPK8IP1 (11723275_at) / Fold change /veh LOC101060620 /// MAPK8IP1 (11723275_at) / RFU SPTSSB (11747773_x_at) / Fold change /veh SPTSSB (11747773_x_at) / RFU PRSS12 (11739890_at) / Fold change /veh PRSS12 (11739890_at) / RFU BIN1 (11741810_x_at) / Fold change /veh BIN1 (11741810_x_at) / RFU WNT11 (11732464_a_at) / Fold change /veh WNT11 (11732464_a_at) / RFU C10orf10 (11716521_a_at) / Fold change /veh C10orf10 (11716521_a_at) / RFU C5orf56 (11738089_at) / Fold change /veh C5orf56 (11738089_at) / RFU CYB561 (11721691_x_at) / Fold change /veh CYB561 (11721691_x_at) / RFU ANKRD19P (11752326_a_at) / Fold change /veh ANKRD19P (11752326_a_at) / RFU OR2T12 /// OR2T33 /// OR2T8 (11738714_s_at) / Fold change /veh OR2T12 /// OR2T33 /// OR2T8 (11738714_s_at) / RFU VCAN (11748164_a_at) / Fold change /veh VCAN (11748164_a_at) / RFU JSRP1 (11732532_at) / Fold change /veh JSRP1 (11732532_at) / RFU KRTAP10-11 (11738290_x_at) / Fold change /veh KRTAP10-11 (11738290_x_at) / RFU MYO3A (11730013_a_at) / Fold change /veh MYO3A (11730013_a_at) / RFU EBF3 (11725865_a_at) / Fold change /veh EBF3 (11725865_a_at) / RFU CAMK2N1 (11719241_x_at) / Fold change /veh CAMK2N1 (11719241_x_at) / RFU C5orf56 (11738088_a_at) / Fold change /veh C5orf56 (11738088_a_at) / RFU OLFML3 (11715873_a_at) / Fold change /veh OLFML3 (11715873_a_at) / RFU LOC100653217 /// NTM (11731650_a_at) / Fold change /veh LOC100653217 /// NTM (11731650_a_at) / RFU MAPK11 (11762145_a_at) / Fold change /veh MAPK11 (11762145_a_at) / RFU FIZ1 (11724087_x_at) / Fold change /veh FIZ1 (11724087_x_at) / RFU OASL (11726364_x_at) / Fold change /veh OASL (11726364_x_at) / RFU SOX15 (11748057_x_at) / Fold change /veh SOX15 (11748057_x_at) / RFU CD79A (11719716_a_at) / Fold change /veh CD79A (11719716_a_at) / RFU HIST1H1D (11736915_at) / Fold change /veh HIST1H1D (11736915_at) / RFU CASKIN2 (11723855_a_at) / Fold change /veh CASKIN2 (11723855_a_at) / RFU LOC730098 (11760151_x_at) / Fold change /veh LOC730098 (11760151_x_at) / RFU OR4N2 (11742367_at) / Fold change /veh OR4N2 (11742367_at) / RFU PRRT2 (11749266_a_at) / Fold change /veh PRRT2 (11749266_a_at) / RFU SNX32 (11753110_a_at) / Fold change /veh SNX32 (11753110_a_at) / RFU CDHR5 (11726645_a_at) / Fold change /veh CDHR5 (11726645_a_at) / RFU RCAN1 (11760418_a_at) / Fold change /veh RCAN1 (11760418_a_at) / RFU FAM167A (11723789_a_at) / Fold change /veh FAM167A (11723789_a_at) / RFU FAM26E (11764081_at) / Fold change /veh FAM26E (11764081_at) / RFU ISYNA1 (11749810_s_at) / Fold change /veh ISYNA1 (11749810_s_at) / RFU ACY1 (11761880_at) / Fold change /veh ACY1 (11761880_at) / RFU 11764098_at / Fold change /veh 11764098_at / RFU SAMD14 (11745864_x_at) / Fold change /veh SAMD14 (11745864_x_at) / RFU NPB (11741838_a_at) / Fold change /veh NPB (11741838_a_at) / RFU TMPRSS6 (11731388_a_at) / Fold change /veh TMPRSS6 (11731388_a_at) / RFU KRTAP10-2 (11738614_at) / Fold change /veh KRTAP10-2 (11738614_at) / RFU ARHGAP8 /// PRR5-ARHGAP8 (11727945_x_at) / Fold change /veh ARHGAP8 /// PRR5-ARHGAP8 (11727945_x_at) / RFU KRTAP5-7 /// NADSYN1 (11734609_at) / Fold change /veh KRTAP5-7 /// NADSYN1 (11734609_at) / RFU RASL12 (11751679_a_at) / Fold change /veh RASL12 (11751679_a_at) / RFU CDKN2B (11736163_a_at) / Fold change /veh CDKN2B (11736163_a_at) / RFU PRF1 (11729649_at) / Fold change /veh PRF1 (11729649_at) / RFU, ZNF638 /// ZNF638-IT1 / Fold change vs veh, ZNF638 /// ZNF638-IT1 / RFU, PANK3 / Fold change vs veh, PANK3 / RFU, SH3YL1 / Fold change vs veh, SH3YL1 / RFU, ZEB2 / Fold change vs veh, ZEB2 / RFU, NRIP1 / Fold change vs veh, NRIP1 / RFU, PTTG1IP / Fold change vs veh, PTTG1IP / RFU, CAPN2 / Fold change vs veh, CAPN2 / RFU, MED14 / Fold change vs veh, MED14 / RFU, SNORA58 / Fold change vs veh, SNORA58 / RFU, C1orf63 / Fold change vs veh, C1orf63 / RFU, LRRFIP1 / Fold change vs veh, LRRFIP1 / RFU, NDUFAF7 / Fold change vs veh, NDUFAF7 / RFU, SLC12A2 / Fold change vs veh, SLC12A2 / RFU, IBTK / Fold change vs veh, IBTK / RFU, ESF1 / Fold change vs veh, ESF1 / Fold change vs veh, TMEM50B / RFU, TAOK1 / Fold change vs veh, TAOK1 / RFU, ACBD3 / Fold change vs veh, ACBD3 / RFU, TMA16 / Fold change vs veh, TMA16 / RFU, RWDD3 / Fold change vs veh, RWDD3 / RFU, BCAT1 / Fold change vs veh, BCAT1 / RFU, EDEM3 / Fold change vs veh, EDEM3 / RFU, TMEM33 / Fold change vs veh, TMEM33 / RFU, WDR75 / Fold change vs veh, WDR75 / RFU, AHCTF1 / Fold change vs veh, AHCTF1 / RFU, TFRC / Fold change vs veh, TFRC / RFU, ZDHHC17 / Fold change vs veh, ZDHHC17 / RFU, NOM1 / Fold change vs veh, NOM1 / RFU, ARL8B / Fold change vs veh, ARL8B / RFU, ZBTB11 / Fold change vs veh, ZBTB11 / RFU, TAMM41 / Fold change vs veh, TAMM41 / RFU, KIAA1704 /// LOC100996395 / Fold change vs veh, KIAA1704 /// LOC100996395 / RFU, ING1 / Fold change vs veh, ING1 / RFU, TRMT61B / Fold change vs veh, TRMT61B / RFU, FUBP3 / Fold change vs veh, FUBP3 / RFU, TP53 / Fold change vs veh, TP53 / RFU, TNKS2 / Fold change vs veh, TNKS2 / RFU, ZFP14 / Fold change vs veh, ZFP14 / RFU, ACTR2 / Fold change vs veh, ACTR2 / RFU, PPP3R1 / Fold change vs veh, PPP3R1 / RFU, PIK3R1 / Fold change vs veh, PIK3R1 / RFU, HNRNPA1 / Fold change vs veh, HNRNPA1 / RFU, RNF170 / Fold change vs veh, RNF170 / RFU, ZNF28 / Fold change vs veh, ZNF28 / RFU, RNGTT / Fold change vs veh, RNGTT / RFU, OGT / Fold change vs veh, OGT / RFU, BRD1 / Fold change vs veh, BRD1 / RFU, MARS / Fold change vs veh, MARS / RFU, ZNF655 / Fold change vs veh, ZNF655 / RFU, FAHD1 / Fold change vs veh, FAHD1 / RFU, BDP1 / Fold change vs veh, BDP1 / RFU, LRRCC1 / Fold change vs veh, LRRCC1 / RFU, ARID1A / Fold change vs veh, ARID1A / RFU, ZNF146 / Fold change vs veh, ZNF146 / RFU, ZNF330 / Fold change vs veh, ZNF330 / RFU, GPN3 / Fold change vs veh, GPN3 / RFU, C9orf123 / Fold change vs veh, C9orf123 / RFU, N4BP2L2 / Fold change vs veh, N4BP2L2 / RFU, ARFIP1 / Fold change vs veh, ARFIP1 / RFU, FAM179B / Fold change vs veh, FAM179B / RFU, BCL10 / Fold change vs veh, BCL10 / RFU, UHRF1BP1L / Fold change vs veh, UHRF1BP1L / RFU, BET1 / Fold change vs veh, BET1 / RFU, CNOT2 / Fold change vs veh, CNOT2 / RFU, ZNF268 / Fold change vs veh, ZNF268 / Fold change vs veh, ZNF507 / RFU, DGCR2 / Fold change vs veh, DGCR2 / RFU, WDSUB1 / Fold change vs veh, WDSUB1 / Fold change vs veh, HSP90B1 /// MIR3652 / RFU, ADSS / Fold change vs veh, ADSS / RFU, GK / Fold change vs veh, GK / RFU, ZNF148 / Fold change vs veh, ZNF148 / RFU, TAF9 / Fold change vs veh, TAF9 / RFU, SLC1A5 / Fold change vs veh, SLC1A5 / RFU, SLMO2 / Fold change vs veh, SLMO2 / RFU, ABCC4 / Fold change vs veh, ABCC4 / RFU, LOC101060439 /// RAP1B / Fold change vs veh, LOC101060439 /// RAP1B / RFU, RFX7 / Fold change vs veh, RFX7 / RFU, GTPBP10 / Fold change vs veh, GTPBP10 / RFU, CNEP1R1 / Fold change vs veh, CNEP1R1 / RFU, BIVM-ERCC5 /// ERCC5 / Fold change vs veh, BIVM-ERCC5 /// ERCC5 / RFU, ILF3 / Fold change vs veh, ILF3 / RFU 11762660_at / Fold change /veh 11762660_at / RFU VCAN (11757783_s_at) / Fold change /veh VCAN (11757783_s_at) / RFU DDX43 (11728927_at) / Fold change /veh DDX43 (11728927_at) / RFU KRT8 (11758188_x_at) / Fold change /veh KRT8 (11758188_x_at) / RFU NKD1 (11759106_at) / Fold change /veh NKD1 (11759106_at) / RFU SRD5A1 (11742802_a_at) / Fold change /veh SRD5A1 (11742802_a_at) / RFU TPSAB1 /// TPSB2 (11721975_s_at) / Fold change /veh TPSAB1 /// TPSB2 (11721975_s_at) / RFU GSTM3 (11746129_a_at) / Fold change /veh GSTM3 (11746129_a_at) / RFU IL23R (11737362_x_at) / Fold change /veh IL23R (11737362_x_at) / RFU TMEM51 (11727254_a_at) / Fold change /veh TMEM51 (11727254_a_at) / RFU PIWIL2 (11732686_x_at) / Fold change /veh PIWIL2 (11732686_x_at) / RFU ORM1 (11744905_x_at) / Fold change /veh ORM1 (11744905_x_at) / RFU CCDC152 (11743942_at) / Fold change /veh CCDC152 (11743942_at) / RFU ECM1 (11717891_a_at) / Fold change /veh ECM1 (11717891_a_at) / RFU IL23R (11748794_a_at) / Fold change /veh IL23R (11748794_a_at) / RFU TNFAIP8L3 (11732012_x_at) / Fold change /veh TNFAIP8L3 (11732012_x_at) / RFU MBOAT4 (11741988_at) / Fold change /veh MBOAT4 (11741988_at) / RFU 11764193_at / Fold change /veh 11764193_at / RFU TMEM53 (11763286_at) / Fold change /veh TMEM53 (11763286_at) / RFU MAGEB2 (11727129_at) / Fold change /veh MAGEB2 (11727129_at) / RFU TMEM200A (11744735_a_at) / Fold change /veh TMEM200A (11744735_a_at) / RFU CCDC152 (11751479_a_at) / Fold change /veh CCDC152 (11751479_a_at) / RFU FAM211A (11726209_a_at) / Fold change /veh FAM211A (11726209_a_at) / RFU RGS16 (11746705_a_at) / Fold change /veh RGS16 (11746705_a_at) / RFU VCAN (11755009_s_at) / Fold change /veh VCAN (11755009_s_at) / RFU RHOB (11743442_s_at) / Fold change /veh RHOB (11743442_s_at) / RFU RGS16 (11720943_a_at) / Fold change /veh RGS16 (11720943_a_at) / RFU RGS16 (11720944_at) / Fold change /veh RGS16 (11720944_at) / RFU, VPS4B / Fold change vs veh, VPS4B / RFU, CREB1 / Fold change vs veh, CREB1 / RFU, DNAJC13 / Fold change vs veh, DNAJC13 / RFU, GNAQ / Fold change vs veh, GNAQ / RFU, CDK5R1 / Fold change vs veh, CDK5R1 / RFU, ZRANB3 / Fold change vs veh, ZRANB3 / RFU, CUL4A / Fold change vs veh, CUL4A / RFU, CCNY / Fold change vs veh, CCNY / RFU, UFL1 / Fold change vs veh, UFL1 / RFU, COG3 / Fold change vs veh, COG3 / RFU, DIAPH2 / Fold change vs veh, DIAPH2 / RFU, SKA2 / Fold change vs veh, SKA2 / RFU, AFF3 / Fold change vs veh, AFF3 / RFU, LMF1 / Fold change vs veh, LMF1 / RFU, IPO11 / Fold change vs veh, IPO11 / RFU, DFFB / Fold change vs veh, DFFB / RFU, FOXP1 / Fold change vs veh, FOXP1 / RFU, CARD8 / Fold change vs veh, CARD8 / RFU, STRN3 / Fold change vs veh, STRN3 / RFU, ADK / Fold change vs veh, ADK / RFU, RASSF2 / Fold change vs veh, RASSF2 / RFU, WIPF1 / Fold change vs veh, WIPF1 / RFU, LARP1B / Fold change vs veh, LARP1B / RFU, RASA1 / Fold change vs veh, RASA1 / RFU, RB1 / Fold change vs veh, RB1 / RFU, PPFIA1 / Fold change vs veh, PPFIA1 / RFU, MAT2A / Fold change vs veh, MAT2A / RFU, CCT5 / Fold change vs veh, CCT5 / RFU, WDR92 / Fold change vs veh, WDR92 / RFU, CUX1 / Fold change vs veh, CUX1 / RFU, TTC7A / Fold change vs veh, TTC7A / RFU, TMEM135 / Fold change vs veh, TMEM135 / RFU, DEPTOR / Fold change vs veh, DEPTOR / RFU, CPM / Fold change vs veh, CPM / RFU, DNAJB6 / Fold change vs veh, DNAJB6 / RFU, CACNA2D3 / Fold change vs veh, CACNA2D3 / RFU, DTX4 / Fold change vs veh, DTX4 / RFU, TFCP2 / Fold change vs veh, TFCP2 / RFU, GMCL1 /// GMCL1P1 / Fold change vs veh, GMCL1 /// GMCL1P1 / RFU, AEBP2 / Fold change vs veh, AEBP2 / RFU, SNHG1 /// SNORD22 /// SNORD25 /// SNORD26 /// SNORD27 /// SNORD28 /// SNORD29 /// SNORD31 / Fold change vs veh, SNHG1 /// SNORD22 /// SNORD25 /// SNORD26 /// SNORD27 /// SNORD28 /// SNORD29 /// SNORD31 / Fold change (Aza/veh), C12orf56 (ProbeSet 11735607_a_at) / Fold change (ACY-1035/veh), C12orf56 (ProbeSet 11735607_a_at) / Fold change (Aza/veh), FGFR1OP (ProbeSet 11751329_s_at) / Fold change (ACY-1035/veh), FGFR1OP (ProbeSet 11751329_s_at) / Fold change (Aza/veh), VPS36 (ProbeSet 11739960_a_at) / Fold change (ACY-1035/veh), VPS36 (ProbeSet 11739960_a_at) / RFU SYPL1 (11715823_x_at) / Fold change /veh SYPL1 (11715823_x_at) / RFU IGFBP7 (11715501_s_at) / Fold change /veh IGFBP7 (11715501_s_at) / RFU REEP3 (11722064_at) / Fold change /veh REEP3 (11722064_at) / RFU IGLL1 (11728026_x_at) / Fold change /veh IGLL1 (11728026_x_at): dose or concentration left out as unconfirmed
Details: MV-4-11 cells, 48 hours

Nc1ncn([C@@H]2O[C@H](CO)[C@@H](O)[C@H]2O)c(=O)n1 [azacitidine]
Fold change /veh 11764098_at: 1.18
